# Results taken from PubChem BioAssay (NCI).
#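 Compound exposure: 48 hours, 5 concentrations, 96-well plates. TGI marks complete inhibition of growth.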
# System: P388 leukemia
# Experiment: NCI tumour cell line growth inhibition, 48 h
smiles,measurement,value
CCCCCCCC(=O)O[C@H]1[C@H]2[C@@H](CC1(C)C)C(=O)[C@]13O[C@H]1C(=O)[C@]1(CO1)[C@]23C,TGI,5.19 µM
